Measurements reported in patent US20040037856A1, “Use of compounds containing a thio-ether, sulphoxide or sulphone function as cosmetic anti-pollution agent” (priority 2000, published 2004).

Assays:
human keratinocytes [1] = assay: Ozone-induced lipid hydroperoxides (DCFH-DA fluorescence) in monolayer culture of human keratinocytes; type: cell-based; settings: for % fluorescence observed ± SEM in the presence of CMC, relative to the unprotected controls: 24 h pretreatment with CMC 0.5 mg/ml, CMC 1 mg/ml in PBS during exposure (b102 says 200 μM), controls = 100%, n=4
Method: Ozone has the capacity to oxidize cell constituents, especially generating carbonylated proteins and lipid hydroperoxides. Quantification of the lipid hydroperoxides is one means of measuring the oxidative stress induced by exposing skin tissue to this pollutant. A decrease in their content indicates a protective effect. The study was performed on a monolayer culture of human keratinocytes. The cells are inoculated on D-3 into 48-well dishes at a rate of 25 000 cells/cm^2 in 500 μl of culture medium. The incubations are performed at 37° C., 5% CO2 under a humid atmosphere. The cells were pretreated for 24 hours with CMC (0.5 mg/ml, half-maximal dose that is nontoxic to the cells, dissolved in the culture medium). Hydroperoxides constitute an intracellular stress marker. They are detected and quantified by means of a fluorescence technique (Lebel C. P., Ischiropoulos H. and Bondy S. C. (1992) Evaluation of the probe 2,7-dichlorofluorescin as an indicator of Reactive Oxygen Species formation and oxidative stress. Chem. Res. Toxicol.; 5: 227-231). In the presence of intracellular hydroperoxides and peroxidases, DCFH is oxidized to fluorescent 2,7-dichlorofluorescein (DCF). The cells, pretreated for 24 hours with CMC, are then washed with PBS buffer and placed in contact for 30 minutes with a solution of DCFH-DA (500 μl/well), prepared in the culture medium to a concentration of 320 μM. The cells are again rinsed with PBS buffer and then placed in contact with a CMC solution at a concentration of 1 mg/ml in PBS (100 μl/well). They are then exposed to ozone (1 ppm), under a humid atmosphere, in an incubator set at 37° C. The formation of fluorescent DCF (excitation filter at 485 nm and emission filter at 530 nm) resulting from the production of hydroperoxides is measured after different times of exposure to ozone: 0, 5, 10 and 20 minutes. Toxicity of ozone toward human keratinocytes in culture, in the absence and presence of S-carboxymethylcysteine at a concentration of 200 μM, as a function of the exposure time (n=4). For each time, the fluorescence values of the unprotected controls are set at 100%. The results in the presence of CMC are then expressed relative to this control value. […] This protection is at a maximum from 5 minutes of exposure onward (67.7% drop in induced stress). It is still significant after 20 minutes of exposure (53.5% drop in induced stress) relative to the unprotected controls.

human keratinocytes [2] = assay: Toxicity of CMC to the keratinocytes (nontoxic dose); type: cell-based; settings: dissolved in the culture medium, 24 hours
Method: The study was performed on a monolayer culture of human keratinocytes. The cells are inoculated on D-3 into 48-well dishes at a rate of 25 000 cells/cm^2 in 500 μl of culture medium. The incubations are performed at 37° C., 5% CO2 under a humid atmosphere.
The cells were pretreated for 24 hours with CMC (0.5 mg/ml, half-maximal dose that is nontoxic to the cells, dissolved in the culture medium).

N[C@@H](CSCC(=O)O)C(=O)O [CMC, S-carboxymethylcysteine]
% fluorescence observed ± SEM in the presence of CMC, relative to the unprotected controls (human keratinocytes [1]; 5 min. of contact with ozone (1 ppm)): 32.4 ± 5.9% | drop in induced stress relative to the unprotected controls (human keratinocytes [1]; 5 minutes of exposure to ozone): 67.7% | % fluorescence observed ± SEM in the presence of CMC, relative to the unprotected controls (human keratinocytes [1]; 10 min. of contact with ozone (1 ppm)): 33.7 ± 5.0% | % fluorescence observed ± SEM in the presence of CMC, relative to the unprotected controls (human keratinocytes [1]; 20 min. of contact with ozone (1 ppm)): 46.5 ± 8.5% | drop in induced stress relative to the unprotected controls (human keratinocytes [1]; 20 minutes of exposure to ozone): 53.5% | protective effect against the effect induced by ozone (oxidative stress) (human keratinocytes [1]; human keratinocytes in vitro, ozone exposure): highly significant protective effect | half-maximal dose that is nontoxic to the cells (human keratinocytes [2]): 0.5 mg/mL
